Patent US20080009418A1, “Selective Inhibitors” (Alchemia LTD., priority 2004, published 2008)

How the values were obtained:
Details in all cases: compound at 10 μM
Human Melanocortin (MC4) = molecular target: T1, Human Melanocortin (MC4) (Homo sapiens, UniProt P32245); experiment: Radioligand binding, human melanocortin MC4 membranes, FlashPlate, [125I]-NDP-αMSH
T1 construct: purchased Perkin Elmer Biosignal
In short: (§1)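 Cloned human receptor membranes were coated onto FlashPlate wells and incubated with radioligand and compound (added from a 0.5 mM DMSO daughter plate) for 1 hour at room temperature in the dark. Scintillation counting gave percent inhibition, with DMSO defining total and reference ligand defining non-specific binding.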

Human Melanocortin (MC3) = molecular target: T2, Human Melanocortin (MC3) (Homo sapiens, UniProt P41968); experiment: Radioligand binding, human melanocortin MC3 membranes, FlashPlate, [125I]-NDP-αMSH
T2 construct: purchased Perkin Elmer Biosignal
In short: as §1

Human κ-Opioid (KOP) = molecular target: T3, Human κ-Opioid (KOP) (Homo sapiens, UniProt P41145); experiment: Radioligand binding, human κ-opioid (KOP) membranes, filtration, [3H]-Diprenorphine
T3 construct: purchased Perkin Elmer Biosignal
In short: (§2)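 Filtration binding on cloned human receptor membranes (1 Unit/well), [125I]-Substance P for NK1 and [3H]-Diprenorphine for KOP, 1 h at room temperature. Filters PEI-presoaked, washed with cold 50 mM Tris-HCl pH 7.4, counted by scintillation; percent inhibition calculated, reference ligand defining non-specific binding.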

Mouse urotensin (mUR2) = molecular target: T4, Mouse urotensin (mUR2) (Mus musculus, UniProt Q8VIH9); experiment: Radioligand binding, mouse urotensin mUR2 membranes, FlashPlate, [125I]-Urotensin II
T4 construct: purchased Perkin Elmer Biosignal
T4 sequence (Q8VIH9 1-385): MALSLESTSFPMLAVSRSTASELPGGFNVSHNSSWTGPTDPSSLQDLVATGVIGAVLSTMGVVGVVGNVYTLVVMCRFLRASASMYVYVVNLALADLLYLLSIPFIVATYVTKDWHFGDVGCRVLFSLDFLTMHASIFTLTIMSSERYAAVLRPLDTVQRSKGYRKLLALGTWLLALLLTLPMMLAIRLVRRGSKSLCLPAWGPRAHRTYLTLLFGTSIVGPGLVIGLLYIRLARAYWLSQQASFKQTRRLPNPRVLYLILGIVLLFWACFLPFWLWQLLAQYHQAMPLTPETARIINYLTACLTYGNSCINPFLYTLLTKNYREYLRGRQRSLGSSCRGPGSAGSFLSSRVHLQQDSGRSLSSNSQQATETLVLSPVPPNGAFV
In short: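 Cloned mouse urotensin (mUR2) receptor membranes from Perkin Elmer Biosignal were immobilized in FlashPlate microplates using a proprietary coating. Each well got 19.5 μl buffer, then 0.5 μl of DMSO, reference ligand, or compound. Adding 5 μl of [125I]-Urotensin II, diluted to 5× final concentration in binding buffer, started binding. Plates were sealed with TopSeal-A and incubated 1 hour at room temperature in the dark. Wells were counted for 30 seconds each on a TopCount after a 60-second delay, and percentage inhibition was calculated.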

[1] = molecular target: T5, Human melanin-concentrating hormone (MCH1) (Homo sapiens, UniProt Q99705); experiment: Radioligand binding, human melanin-concentrating hormone MCH1 membranes, FlashPlate, [125I]-S36057
T5 construct: purchased Perkin Elmer Biosignal
In short: as §1

Human opioid (ORL1) = molecular target: T6, Human opioid (ORL1) (Homo sapiens, UniProt P41146); experiment: Radioligand binding, human opioid ORL1 membranes, FlashPlate, [125I]-Nociceptin
T6 construct: purchased Perkin Elmer Biosignal
In short: as §1

Human δ-opioid (DOP) = molecular target: T7, Human δ-opioid (DOP) (Homo sapiens, UniProt P41143); experiment: Radioligand binding, human δ-opioid (DOP) membranes, FlashPlate, [3H]-Bremazocine
T7 construct: purchased Perkin Elmer Biosignal
In short: as §1

[2] = molecular target: T8, Human neuropeptide Y (NPY-Y1) (Homo sapiens, UniProt P25929); experiment: Radioligand binding, human neuropeptide Y NPY-Y1 membranes, FlashPlate, [125I]-PYY
T8 construct: purchased Perkin Elmer Biosignal
T8 sequence (P25929 1-384): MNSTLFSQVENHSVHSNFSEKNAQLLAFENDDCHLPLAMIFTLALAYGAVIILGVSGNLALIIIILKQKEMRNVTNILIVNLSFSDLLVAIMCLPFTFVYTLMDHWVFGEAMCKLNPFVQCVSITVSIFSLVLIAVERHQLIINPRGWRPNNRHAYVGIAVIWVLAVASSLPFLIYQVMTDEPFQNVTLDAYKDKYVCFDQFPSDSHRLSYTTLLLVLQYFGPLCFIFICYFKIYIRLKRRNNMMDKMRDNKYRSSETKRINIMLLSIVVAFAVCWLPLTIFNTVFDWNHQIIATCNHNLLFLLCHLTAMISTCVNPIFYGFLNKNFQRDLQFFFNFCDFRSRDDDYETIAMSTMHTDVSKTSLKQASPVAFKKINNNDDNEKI
In short: as §1

Human neurokinin (NK1) = molecular target: T9, Human neurokinin (NK1) (Homo sapiens, UniProt P25103); experiment: Radioligand binding, human neurokinin NK1 membranes, filtration, [125I]-Substance P
T9 construct: purchased Perkin Elmer Biosignal
In short: as §2

Human melanocortin (MC5) = molecular target: T10, Human melanocortin (MC5) (Homo sapiens, UniProt P33032); experiment: Radioligand binding, human melanocortin MC5 membranes, FlashPlate, [125I]-NDP-αMSH
T10 construct: purchased Perkin Elmer Biosignal
In short: as §1

Human μ-opioid (MOP) = molecular target: T11, Human μ-opioid (MOP) (Homo sapiens, UniProt P35372); experiment: Radioligand binding, human μ-opioid (MOP) membranes, FlashPlate, [3H]-Naloxone
T11 construct: purchased Perkin Elmer Biosignal
In short: as §1

T1 sequence (P32245 whole entry): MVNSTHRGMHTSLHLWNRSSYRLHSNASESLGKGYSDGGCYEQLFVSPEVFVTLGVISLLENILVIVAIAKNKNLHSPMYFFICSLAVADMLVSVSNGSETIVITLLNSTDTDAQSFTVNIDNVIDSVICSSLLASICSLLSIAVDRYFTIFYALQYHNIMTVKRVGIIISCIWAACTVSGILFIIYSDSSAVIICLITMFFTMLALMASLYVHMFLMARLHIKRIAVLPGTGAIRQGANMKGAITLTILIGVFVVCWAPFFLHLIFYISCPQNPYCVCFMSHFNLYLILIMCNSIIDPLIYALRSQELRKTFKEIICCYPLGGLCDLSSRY
T3 sequence (P41145 whole entry): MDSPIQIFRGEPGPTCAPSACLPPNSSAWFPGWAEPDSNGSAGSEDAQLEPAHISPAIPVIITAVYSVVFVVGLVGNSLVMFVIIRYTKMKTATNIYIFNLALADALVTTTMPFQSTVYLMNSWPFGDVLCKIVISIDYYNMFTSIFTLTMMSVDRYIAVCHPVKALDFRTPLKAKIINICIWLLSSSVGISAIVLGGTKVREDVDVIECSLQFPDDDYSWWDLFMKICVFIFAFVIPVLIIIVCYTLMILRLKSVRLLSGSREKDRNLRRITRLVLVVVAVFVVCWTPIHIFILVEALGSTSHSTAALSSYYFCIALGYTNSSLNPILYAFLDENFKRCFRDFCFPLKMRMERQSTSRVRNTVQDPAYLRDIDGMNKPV
T11 sequence (P35372 whole entry): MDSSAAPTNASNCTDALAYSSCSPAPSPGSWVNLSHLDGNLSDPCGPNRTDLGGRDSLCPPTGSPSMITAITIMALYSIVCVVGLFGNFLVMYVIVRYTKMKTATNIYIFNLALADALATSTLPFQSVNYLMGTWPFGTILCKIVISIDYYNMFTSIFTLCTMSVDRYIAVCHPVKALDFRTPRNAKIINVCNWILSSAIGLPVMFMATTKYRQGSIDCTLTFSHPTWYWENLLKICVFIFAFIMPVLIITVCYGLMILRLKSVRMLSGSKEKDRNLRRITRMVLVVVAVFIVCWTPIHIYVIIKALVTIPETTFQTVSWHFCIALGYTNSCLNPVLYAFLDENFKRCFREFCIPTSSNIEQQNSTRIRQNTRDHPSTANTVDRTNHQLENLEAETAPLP
T6 sequence (P41146 whole entry): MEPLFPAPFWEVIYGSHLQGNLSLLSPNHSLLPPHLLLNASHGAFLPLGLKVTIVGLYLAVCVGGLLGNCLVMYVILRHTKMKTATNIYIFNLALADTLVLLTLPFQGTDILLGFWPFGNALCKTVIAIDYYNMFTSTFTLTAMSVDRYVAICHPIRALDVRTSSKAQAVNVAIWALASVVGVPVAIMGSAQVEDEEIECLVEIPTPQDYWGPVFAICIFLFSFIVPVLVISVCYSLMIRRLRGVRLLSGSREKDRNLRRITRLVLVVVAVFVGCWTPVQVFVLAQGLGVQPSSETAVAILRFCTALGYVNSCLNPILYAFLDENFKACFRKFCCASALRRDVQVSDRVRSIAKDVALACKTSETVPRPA
T2 sequence (P41968 whole entry): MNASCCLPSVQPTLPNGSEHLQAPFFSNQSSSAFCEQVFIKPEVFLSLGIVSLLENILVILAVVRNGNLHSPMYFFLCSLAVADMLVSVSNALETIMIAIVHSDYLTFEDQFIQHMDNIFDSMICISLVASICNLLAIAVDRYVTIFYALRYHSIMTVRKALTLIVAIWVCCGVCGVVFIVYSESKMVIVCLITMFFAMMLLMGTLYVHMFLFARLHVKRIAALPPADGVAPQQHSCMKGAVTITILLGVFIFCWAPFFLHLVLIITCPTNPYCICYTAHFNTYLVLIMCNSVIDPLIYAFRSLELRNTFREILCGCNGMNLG
T7 sequence (P41143 whole entry): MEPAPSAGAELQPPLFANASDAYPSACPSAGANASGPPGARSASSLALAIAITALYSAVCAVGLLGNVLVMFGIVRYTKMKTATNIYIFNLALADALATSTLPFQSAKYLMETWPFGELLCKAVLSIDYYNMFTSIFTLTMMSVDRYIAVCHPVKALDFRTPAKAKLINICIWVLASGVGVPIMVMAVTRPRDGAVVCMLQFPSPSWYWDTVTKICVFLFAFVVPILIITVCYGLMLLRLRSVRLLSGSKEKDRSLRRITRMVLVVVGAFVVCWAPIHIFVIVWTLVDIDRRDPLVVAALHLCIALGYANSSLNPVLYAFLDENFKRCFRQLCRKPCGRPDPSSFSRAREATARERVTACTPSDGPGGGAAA
T5 sequence (Q99705 whole entry): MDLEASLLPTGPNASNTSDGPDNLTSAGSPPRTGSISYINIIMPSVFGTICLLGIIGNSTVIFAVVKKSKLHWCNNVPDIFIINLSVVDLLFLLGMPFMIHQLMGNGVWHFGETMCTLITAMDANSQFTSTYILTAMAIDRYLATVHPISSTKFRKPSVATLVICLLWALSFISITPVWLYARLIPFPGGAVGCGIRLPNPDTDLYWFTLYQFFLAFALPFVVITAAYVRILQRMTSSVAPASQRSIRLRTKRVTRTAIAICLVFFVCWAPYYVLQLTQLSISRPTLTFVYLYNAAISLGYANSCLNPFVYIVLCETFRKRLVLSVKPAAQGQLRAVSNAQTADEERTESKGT
T9 sequence (P25103 whole entry): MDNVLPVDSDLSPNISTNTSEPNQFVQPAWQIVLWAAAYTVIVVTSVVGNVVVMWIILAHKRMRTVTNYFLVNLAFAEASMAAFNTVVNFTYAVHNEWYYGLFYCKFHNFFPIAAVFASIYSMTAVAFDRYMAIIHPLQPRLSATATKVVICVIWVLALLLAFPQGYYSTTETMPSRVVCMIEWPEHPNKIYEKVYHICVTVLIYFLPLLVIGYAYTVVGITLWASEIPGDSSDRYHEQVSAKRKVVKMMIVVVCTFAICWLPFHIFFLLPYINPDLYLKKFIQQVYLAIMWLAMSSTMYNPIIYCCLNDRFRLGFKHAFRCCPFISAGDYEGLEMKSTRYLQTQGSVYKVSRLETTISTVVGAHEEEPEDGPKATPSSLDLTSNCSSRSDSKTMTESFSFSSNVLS
T10 sequence (P33032 whole entry): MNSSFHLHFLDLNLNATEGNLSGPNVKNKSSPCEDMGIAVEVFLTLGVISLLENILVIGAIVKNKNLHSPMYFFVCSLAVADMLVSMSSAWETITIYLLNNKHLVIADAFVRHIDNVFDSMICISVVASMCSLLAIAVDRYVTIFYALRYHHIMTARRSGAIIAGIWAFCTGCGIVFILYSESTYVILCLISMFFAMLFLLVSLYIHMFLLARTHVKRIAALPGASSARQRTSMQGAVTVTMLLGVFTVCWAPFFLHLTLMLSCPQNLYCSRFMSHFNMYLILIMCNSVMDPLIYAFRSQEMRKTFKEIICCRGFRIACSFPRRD

COCC1OC(OCCc2ccccc2)C(NC(=O)CN)C(OCc2ccc(Cl)cc2)C1O (stereo not shown) [compound 219]
A4: inhibition of radioligand binding (Human Melanocortin (MC4); [125I]-NDP-αMSH, FlashPlate): − (“−” indicates less than 50% inhibition at 10 μM)
A3: inhibition of radioligand binding (Human Melanocortin (MC3); [125I]-NDP-αMSH, FlashPlate): − (“−” indicates less than 50% inhibition at 10 μM)
A2: inhibition of radioligand binding (Human κ-Opioid (KOP); [3H]-Diprenorphine, filtration): − (“−” indicates less than 50% inhibition at 10 μM)
A11: inhibition of radioligand binding (Mouse urotensin (mUR2); [125I]-Urotensin II, FlashPlate): − (“−” indicates less than 50% inhibition at 10 μM)
A6: inhibition of radioligand binding ([1]; [125I]-S36057, FlashPlate): − (“−” indicates less than 50% inhibition at 10 μM)
A10: inhibition of radioligand binding (Human opioid (ORL1); [125I]-Nociceptin, FlashPlate): − (“−” indicates less than 50% inhibition at 10 μM)
A1: inhibition of radioligand binding (Human δ-opioid (DOP); [3H]-Bremazocine, FlashPlate): − (“−” indicates less than 50% inhibition at 10 μM)
A9: inhibition of radioligand binding ([2]; [125I]-PYY, FlashPlate): − (“−” indicates less than 50% inhibition at 10 μM)
A8: inhibition of radioligand binding (Human neurokinin (NK1); [125I]-Substance P, filtration): + (“+” indicates greater than 50% inhibition at 10 μM)
A5: inhibition of radioligand binding (Human melanocortin (MC5); [125I]-NDP-αMSH, FlashPlate): + (“+” indicates greater than 50% inhibition at 10 μM)
A7: inhibition of radioligand binding (Human μ-opioid (MOP); [3H]-Naloxone, FlashPlate): − (“−” indicates less than 50% inhibition at 10 μM)

NCCC(=O)N[C@H]1C(OCc2ccc3ccccc3c2)O[C@H](COCc2ccccc2)[C@@H](O)[C@@H]1OCc1ccc2ccccc2c1 (stereo partly shown) [compound 444]
A4: inhibition of radioligand binding (Human Melanocortin (MC4); [125I]-NDP-αMSH, human MC4 membranes, 10 µM): − (“−” indicates less than 50% inhibition at 10 μM)
A3: inhibition of radioligand binding (Human Melanocortin (MC3); [125I]-NDP-αMSH, human MC3 membranes, 10 µM): − (“−” indicates less than 50% inhibition at 10 μM)
A2: inhibition of radioligand binding (Human κ-Opioid (KOP); [3H]-Diprenorphine, human KOP membranes, 10 µM): − (“−” indicates less than 50% inhibition at 10 μM)
A11: inhibition of radioligand binding (Mouse urotensin (mUR2); [125I]-Urotensin II, mouse mUR2 membranes): − (“−” indicates less than 50% inhibition at 10 μM)
A6: inhibition of radioligand binding ([1]; [125I]-S36057, human MCH1 membranes, 10 µM): − (“−” indicates less than 50% inhibition at 10 μM)
A10: inhibition of radioligand binding (Human opioid (ORL1); [125I]-Nociceptin, human ORL1 membranes, 10 µM): − (“−” indicates less than 50% inhibition at 10 μM)
A1: inhibition of radioligand binding (Human δ-opioid (DOP); [3H]-Bremazocine, human DOP membranes): − (“−” indicates less than 50% inhibition at 10 μM)
A9: inhibition of radioligand binding ([2]; [125I]-PYY, human NPY-Y1 membranes): − (“−” indicates less than 50% inhibition at 10 μM)
A8: inhibition of radioligand binding (Human neurokinin (NK1); [125I]-Substance P, human NK1 membranes): + (“+” indicates greater than 50% inhibition at 10 μM)
A5: inhibition of radioligand binding (Human melanocortin (MC5); [125I]-NDP-αMSH, human MC5 membranes, 10 µM): − (“−” indicates less than 50% inhibition at 10 μM)
A7: inhibition of radioligand binding (Human μ-opioid (MOP); [3H]-Naloxone, human MOP membranes, 10 µM): − (“−” indicates less than 50% inhibition at 10 μM)

COC[C@H]1OC(OCc2ccc(-c3ccccc3)cc2)[C@H](NC(=O)CNC(=N)N)[C@@H](OCc2ccc(-c3ccccc3)cc2)[C@@H]1O (stereo partly shown) [compound 1]
A4 radioligand binding inhibition (Human Melanocortin (MC4); human melanocortin MC4 membranes): + (“+” indicates greater than 50% inhibition at 10 μM)
A3 radioligand binding inhibition (Human Melanocortin (MC3); human melanocortin MC3 membranes): + (“+” indicates greater than 50% inhibition at 10 μM)
A2 radioligand binding inhibition (Human κ-Opioid (KOP); human κ-opioid (KOP) membranes): − (“−” indicates less than 50% inhibition at 10 μM)
A11 radioligand binding inhibition (Mouse urotensin (mUR2); mouse urotensin mUR2 membranes): − (“−” indicates less than 50% inhibition at 10 μM)
A6 radioligand binding inhibition ([1]; human MCH1 membranes): + (“+” indicates greater than 50% inhibition at 10 μM)
A10 radioligand binding inhibition (Human opioid (ORL1); human ORL1 membranes): − (“−” indicates less than 50% inhibition at 10 μM)
A1 radioligand binding inhibition (Human δ-opioid (DOP); human δ-opioid (DOP) membranes): − (“−” indicates less than 50% inhibition at 10 μM)
A9 radioligand binding inhibition ([2]; human NPY-Y1 membranes): − (“−” indicates less than 50% inhibition at 10 μM)
A8 radioligand binding inhibition (Human neurokinin (NK1); human neurokinin NK1 membranes): + (“+” indicates greater than 50% inhibition at 10 μM)
A5 radioligand binding inhibition (Human melanocortin (MC5); human melanocortin MC5 membranes): + (“+” indicates greater than 50% inhibition at 10 μM)
A7 radioligand binding inhibition (Human μ-opioid (MOP); human μ-opioid (MOP) membranes): − (“−” indicates less than 50% inhibition at 10 μM)

N=C(N)NCC(=O)N[C@H]1C(OCc2ccc(Cl)cc2)O[C@H](COCc2ccc3ccccc3c2)[C@@H](O)[C@@H]1OCc1ccc2ccccc2c1 (stereo partly shown) [compound 513]
A4: inhibition of radioligand binding, human melanocortin (MC4) (Human Melanocortin (MC4); [125I]-NDP-αMSH): + (“+” indicates greater than 50% inhibition at 10 μM)
A3: inhibition of radioligand binding, human melanocortin (MC3) (Human Melanocortin (MC3); [125I]-NDP-αMSH): + (“+” indicates greater than 50% inhibition at 10 μM)
A2: inhibition of radioligand binding, human κ-opioid (KOP) (Human κ-Opioid (KOP); [3H]-Diprenorphine, 10 µM): + (“+” indicates greater than 50% inhibition at 10 μM)
A11: inhibition of radioligand binding, mouse urotensin (mUR2) (Mouse urotensin (mUR2); [125I]-Urotensin II): − (“−” indicates less than 50% inhibition at 10 μM)
A6: inhibition of radioligand binding, human melanin-concentrating hormone (MCH1) ([1]; [125I]-S36057): + (“+” indicates greater than 50% inhibition at 10 μM)
A10: inhibition of radioligand binding, human opioid (ORL1) (Human opioid (ORL1); [125I]-Nociceptin): + (“+” indicates greater than 50% inhibition at 10 μM)
A1: inhibition of radioligand binding, human δ-opioid (DOP) (Human δ-opioid (DOP); [3H]-Bremazocine): − (“−” indicates less than 50% inhibition at 10 μM)
A9: inhibition of radioligand binding, human neuropeptide Y (NPY-Y1) ([2]; [125I]-PYY, 10 µM): + (“+” indicates greater than 50% inhibition at 10 μM)
A8: inhibition of radioligand binding, human neurokinin (NK1) (Human neurokinin (NK1); [125I]-Substance P): + (“+” indicates greater than 50% inhibition at 10 μM)
A5: inhibition of radioligand binding, human melanocortin (MC5) (Human melanocortin (MC5); [125I]-NDP-αMSH): + (“+” indicates greater than 50% inhibition at 10 μM)
A7: inhibition of radioligand binding, human μ-opioid (MOP) (Human μ-opioid (MOP); [3H]-Naloxone): + (“+” indicates greater than 50% inhibition at 10 μM)

CO[C@H]1[C@H](O)[C@@H](COCc2cccc(O)c2)OC(OCc2ccc(Cl)cc2)[C@@H]1NC(=O)CNC(=N)N (stereo partly shown) [compound 155]
A4 radioligand binding, percentage inhibition (Human Melanocortin (MC4); [125I]-NDP-αMSH): − (“−” indicates less than 50% inhibition at 10 μM)
A3 radioligand binding, percentage inhibition (Human Melanocortin (MC3); [125I]-NDP-αMSH): − (“−” indicates less than 50% inhibition at 10 μM)
A2 radioligand binding, percentage inhibition (Human κ-Opioid (KOP); [3H]-Diprenorphine): − (“−” indicates less than 50% inhibition at 10 μM)
A11 radioligand binding, percentage inhibition (Mouse urotensin (mUR2); [125I]-Urotensin II): − (“−” indicates less than 50% inhibition at 10 μM)
A6 radioligand binding, percentage inhibition ([1]; [125I]-S36057): − (“−” indicates less than 50% inhibition at 10 μM)
A10 radioligand binding, percentage inhibition (Human opioid (ORL1); [125I]-Nociceptin): − (“−” indicates less than 50% inhibition at 10 μM)
A1 radioligand binding, percentage inhibition (Human δ-opioid (DOP); [3H]-Bremazocine): − (“−” indicates less than 50% inhibition at 10 μM)
A9 radioligand binding, percentage inhibition ([2]; [125I]-PYY): − (“−” indicates less than 50% inhibition at 10 μM)
A8 radioligand binding, percentage inhibition (Human neurokinin (NK1); [125I]-Substance P): − (“−” indicates less than 50% inhibition at 10 μM)
A5 radioligand binding, percentage inhibition (Human melanocortin (MC5); [125I]-NDP-αMSH): + (“+” indicates greater than 50% inhibition at 10 μM)
A7 radioligand binding, percentage inhibition (Human μ-opioid (MOP); [3H]-Naloxone): − (“−” indicates less than 50% inhibition at 10 μM)
